{"source": "patent US6509380B1", "about": "“Method of treating iron overload with acetaminophen” (Marshall University Research Corporation, priority 2001, dated 2003)", "key": {"iron-overloaded gerbils": {"test_system": "iron-overloaded gerbils", "assay": "Iron-overload model in Mongolian gerbils (iron dextran ip), treatment with acetaminophen", "type": "in vivo, Mongolian gerbil", "text": "Female Mongolian gerbils were divided into groups: positive iron control (iron injections given), iron-treated (injections of iron and acetaminophen), negative iron controls (no iron given), and treatment controls (injections of the investigational agent, only). Gerbils designated to receive iron were iron overloaded by a series of intraperitoneal (ip) injections of iron dextran during a two-month period of time. Treatments were initiated one month after completion of iron overloading and continued for one additional month.\nElectrocardiograms (ECGs) were done on gerbils in all four groups, two months and again three months after completion of iron overloading. Gerbils were autopsied five months after completion of iron overloading and resulting stained tissue slides were evaluated by light microscopy. Livers and whole hearts were obtained from gerbils in control and iron-overloaded groups and weighed. Whole hearts and weighed liver samples were acid digested and measured for total iron content."}, "[1]": {"assay": "Toxicity of acetaminophen in iron overloaded animals versus animals with normal iron levels", "type": "in vivo", "details": "multiple tests, no details given", "text": "It was initially believed that acetaminophen would be more toxic in iron overloaded animals than in animals having normal iron levels."}}}
{"smiles": "CC(=O)Nc1ccc(O)cc1", "note": "[acetaminophen]", "values": [{"measurement": "premature ventricular complexes (EKG findings)", "setting": "iron-overloaded gerbils; ECGs two and three months after completion of iron overloading, four of 10 untreated iron-overloaded gerbils (40%) showed them", "value": "not in animals from the other three groups"}, {"measurement": "iron-induced cardiac and hepatic hypertrophy (heart weights, heart/total body weight ratios, liver weights, liver/total body weight ratios)", "setting": "iron-overloaded gerbils; autopsies, weight data and histological evaluations", "value": "effectively combats iron-induced cardiac and hepatic hypertrophy"}, {"measurement": "reduction of cardiac iron (ICP-AES tissue iron measurement)", "setting": "iron-overloaded gerbils; iron-overloaded female gerbils, versus untreated iron-overloaded animals, almost entirely from cardiomyocytes, less from cardiac macrophages, P<0.005", "value": "over 40%"}, {"measurement": "reduction in liver iron (ICP-AES tissue iron measurement)", "setting": "iron-overloaded gerbils; iron-overloaded female gerbils, versus untreated iron-overloaded animals, not statistically significant", "value": 17, "unit": "%"}, {"measurement": "accumulations of iron in the bone marrow, proximal renal tubules, heart and numerous other organs and tissues", "setting": "iron-overloaded gerbils; stained tissue slides, light microscopy, less effect in the livers", "value": "greatly reduced accumulations of iron"}, {"measurement": "deaths", "setting": "iron-overloaded gerbils; within 5 months after iron overloading, eight of 20 untreated iron-overloaded gerbils died", "value": "No deaths"}, {"measurement": "toxicity in animals having an iron overload compared with animals having normal iron levels", "setting": "[1]", "value": "less toxic in animals having an iron overload than in animals having normal iron levels"}]}
